Target: Protein Kinase C beta 2 (PKCβII) (Homo sapiens (Human), UniProt P05771)
Test: PKCβII coupled PK/LDH spectrophotometric kinase assay
Type: biochemical
Settings: apparent Ki, ATP-competitive model (Morrison equation); 0.1 mM ATP, 30° C.; read-out: PKCb Ki

Chain of Protein Kinase C beta 2 (PKCβII) (P05771 other isoform, or with tags, fused parts or gaps): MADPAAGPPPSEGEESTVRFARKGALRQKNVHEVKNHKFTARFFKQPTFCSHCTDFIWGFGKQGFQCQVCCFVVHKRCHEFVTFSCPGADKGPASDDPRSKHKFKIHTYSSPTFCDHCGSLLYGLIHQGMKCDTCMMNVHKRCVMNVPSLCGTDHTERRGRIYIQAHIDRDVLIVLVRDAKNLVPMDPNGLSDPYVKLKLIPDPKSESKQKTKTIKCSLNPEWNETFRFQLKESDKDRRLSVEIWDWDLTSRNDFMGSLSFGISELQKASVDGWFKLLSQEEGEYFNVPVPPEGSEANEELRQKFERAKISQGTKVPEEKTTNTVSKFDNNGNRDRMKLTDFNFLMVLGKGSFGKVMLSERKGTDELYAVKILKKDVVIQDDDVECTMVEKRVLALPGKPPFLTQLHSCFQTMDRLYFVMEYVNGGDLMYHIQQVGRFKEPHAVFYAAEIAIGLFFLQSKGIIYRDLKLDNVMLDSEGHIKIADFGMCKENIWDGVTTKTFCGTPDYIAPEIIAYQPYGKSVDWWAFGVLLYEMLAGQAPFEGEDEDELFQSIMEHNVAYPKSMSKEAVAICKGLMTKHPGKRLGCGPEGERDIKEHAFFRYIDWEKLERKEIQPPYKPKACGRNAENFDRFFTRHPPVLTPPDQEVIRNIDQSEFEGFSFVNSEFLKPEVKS

Ki [nM] | SMILES
135 | C[C@H]1CN2CCC[C@H]2CN1C(=O)N1Cc2c(NC(=O)c3c(F)ccc(F)c3F)n[nH]c2C1(C)C [Example E13]
25 | C[C@@H]1CN(C(=O)N2Cc3c(NC(=O)c4coc(C5CC5)n4)n[nH]c3C2(C)C)[C@@H](C)CN1C [Example C8]
6.81 | C[C@H]1CN2CCC[C@H]2CN1C(=O)N1Cc2c(NC(=O)c3cc(C4CC4)n[nH]3)n[nH]c2C1(C)C [Example E6]
5.51 | C[C@H]1CN2CCC[C@H]2CN1C(=O)N1Cc2c(NC(=O)c3cc4ccccc4cn3)n[nH]c2C1(C)C [Example E3]

Second part, the compound before the results:

SMILES | Ki [nM]
CC1(C)c2[nH]nc(NC(=O)c3cccc(F)c3F)c2CN1C(=O)N1C[C@@H]2CCCN2C[C@@H]1Cc1ccccc1 [Example A20] | 50.8
C[C@H]1CN2CCC[C@H]2CN1C(=O)N1Cc2c(NC(=O)c3cncs3)n[nH]c2C1(C)C [Example A43] | 135
CC(C)[C@H]1CN2CCC[C@H]2CN1C(=O)N1Cc2c(NC(=O)c3ccccn3)n[nH]c2C1(C)C [Example A100] | 14.1
Cc1nc(C(=O)Nc2n[nH]c3c2CN(C(=O)N2C[C@@H](C)N(CC4CCOCC4)C[C@@H]2C)C3(C)C)c(C)o1 [Example F23] | 31.3
C[C@@H]1CN(C(=O)N2Cc3c(NC(=O)c4ccccn4)n[nH]c3C2(C)C)[C@@H](C)CN1[C@@H](C)CCO [Example A155] | 43.3
C[C@H](CCO)N1C[C@H](C)N(C(=O)N2Cc3c(NC(=O)c4ccccn4)n[nH]c3C2(C)C)C[C@H]1C [Example A154] | 25.1
Cc1nc(C)c(C(=O)Nc2n[nH]c3c2CN(C(=O)N2C[C@@H](C)N(CC4CCOCC4)C[C@@H]2C)C3(C)C)o1 [Example F20] | 19.7
C[C@H]1CN2CCC[C@H]2CN1C(=O)N1Cc2c(NC(=O)c3ccccc3F)n[nH]c2C1(C)C [Example A32] | 92.4
Cc1cc(C(=O)Nc2n[nH]c3c2CN(C(=O)N2C[C@@H]4CCCN4C[C@@H]2C)C3(C)C)n(C)n1 [Example A42] | 67.9
C[C@H]1CN2CCC[C@H]2CN1C(=O)N1Cc2c(NC(=O)c3ccc(Cl)c(Cl)c3)n[nH]c2C1(C)C [Example A36] | 13.9
CC1(C)c2[nH]nc(NC(=O)c3ccc4ccccc4n3)c2CN1C(=O)N1C[C@@H]2CCCN2C[C@@H]1Cc1ccccc1 [Example A13] | 27.7
Cc1nc(C)c(C(=O)Nc2n[nH]c3c2CN(C(=O)N2C[C@@H](C)N(CCCO)C[C@@H]2C)C3(C)C)o1 [Example A160] | 24.9
C[C@@H]1CN(C(=O)N2Cc3c(NC(=O)c4cc(C5CC5)on4)n[nH]c3C2(C)C)[C@@H](C)CN1CC1CCOCC1 [Example F11] | 29.8
CCN1C[C@H](C)N(C(=O)N2Cc3c(NC(=O)c4ccccn4)n[nH]c3C2(C)C)C[C@H]1C [Example A95] | 9.11
CC[C@H]1CN(C(=O)N2Cc3c(NC(=O)c4ccccn4)n[nH]c3C2(C)C)[C@@H](C)CN1C [Example A125] | 93.9
COc1cc(C(=O)Nc2n[nH]c3c2CN(C(=O)N2C[C@@H]4CCCN4C[C@@H]2C)C3(C)C)ccc1Cl [Example A48] | 68.8
CC(C)[C@H]1CN(C)C(C)(C)CN1C(=O)N1Cc2c(NC(=O)c3ccccn3)n[nH]c2C1(C)C [Example A134] | 90.1
COc1ccc(C(=O)Nc2n[nH]c3c2CN(C(=O)N2C[C@@H]4CCCN4C[C@@H]2C)C3(C)C)nc1 [Example A47] | 65.5

Source: patent US8999981B2, “3-amido-pyrrolo[3,4-C]pyrazole-5(1H, 4H,6H) carbaldehyde derivatives” (Pfizer Inc., priority 2007, dated 2015)
